Experimental data as given in patent US10407712B2, “Methods, compositions and kits for high throughput kinase activity screening using mass spectrometry and stable isotopes” (President and Fellows of Harvard College, priority 2008, dated 2019).

Legend:
Src family kinase = test: Immunoblot of HEK293 cells treated with Src family kinase inhibitor; assay type: cell-based, human; conditions: asynchronously growing HEK293 cells
Experimental: FIG. 7E is a photograph of immunoblot data of lysates following treatment of asynchronously growing HEK293 cells with Sic family kinase (SFK) specific inhibitor SU6656 in starved or serum-fed cells.
Lysates were resolved on 4 to 12% SDS/PAGE, transferred onto Potran membranes (Whatman), blocked with 3% milk in TBST (Tris Buffered Saline Tween-20), incubated with 1:1,000 dilution of primary antibody at 4° C. overnight, washed, and incubated with a 1:5,000 dilution of second antibody (HRP-conjugated) with 3% milk in TBST for 1 h at room temperature. Bands were visualized with ECL solution (Roux et al. 2004 Proc Natl Acad Sci USA 101: 13489-[…]).
To further investigate whether this is a Src-dependent site in vivo, asynchronously growing HEK293 cells were treated with the specific Src family kinase inhibitor, Su6656. […] Further, MCF10A cells expressing v-Src:estrogen receptor (Reginato et al. 2005 Mol Cell Biol 25: 4591-4601) were treated with 1 μM 4-hydroxytamoxifen (4-HT) to activate v-Src as a function of time (FIG. 7F).

HeLa cell lysates = test: KAYAK in vitro kinase assay, lysates of asynchronous, G1/S- or G2/M-arrested HeLa cells; assay type: biochemical, human
Experimental: For cell cycle examples, HeLa cells were synchronized by double thymidine block for G1/S-arrest and by 0.2 μg/ml nocodazole for G2/M-arrest as described (Dephoure et al. 2008 Proc Natl Acad Sci USA 105: 10762-10767). Synchronization was confirmed by flow cytometry.
For cell lysis, the media were removed, and cells were washed with ice-cold phosphate-buffered saline (PBS) and lysed with ice-cold lysis buffer (10 mM K2HPO4 pH 7.5, 1 mM EDTA, 10 mM MgCl2, 50 mM β-glycerophosphate, 5 mM EGTA, 0.5% Nonidet P-40, 0.1% Brij 35, 0.1% deoxycholic acid, 1mM sodium orthovanadate, 1mM phenylmethyl-sulfonyl fluoride, 5 μg/ml leupeptin and 5 μg/ml pepstatin A). Lysates were centrifuged at 10,000 rpm for 10 min to remove cell debris, and clear supernatant was used for immunoblotting and in vitro kinase assays. Protein concentration was determined by Bradford assay (Biorad, Hercules, Calif.).
Peptides were synthesized, purified and quantified as described in Yu et al. 2009 Proc Natl Acad Sci USA 106: 11606-11611, hereby incorporated by reference herein in its entirety. Each substrate peptide (250 pmol) was mixed to a final concentration of 5 μM in the 50 μL reaction mixture. Alternatively, reactions were performed using 6 μg cell lysate aliquotes mixed to a final volume of 20 μl. Cell lysate or other kinase source was added to the substrate mixture in 25 mM Tris-Cl, pH 7.5, containing 5 mM ATP, 7.5 mM MgCl2, 0.2 mM EGTA, 7.5 mM β-glycerophosphate, 0.1 mM Na3VO4, and 0.1 mM DTT. The reaction was incubated at 25° C. for 60 min and then terminated by the addition of 100 μl of 1% trifluoroacetic acid (TFA) containing a known amount of an internal standard (typically 20 pmol). Alternatively, the reaction was incubated at 20° C. for 45 min before termination with TFA.
Forty-five individual in vitro kinase reaction mixtures were combined and desalted by using Sep-Pak C18 cartridge (Waters, Milford, Mass.). Phosphopeptides were enriched by immobilized metal ion chromatography (IMAC) with 20 μl of beads (Phos-Select iron affinity gel; Sigma, St. Louis, Mo.) and subsequently desalted by using Empore C18 solid phase extraction disks (3M, St. Paul, Minn.) as described previously.
Quantitation of the target peptide-internal standard ratios was performed by first constructing the extracted ion chromatogram for the most abundant charge state for each peptide using a ±10 ppm window. Chromatograms were integrated using Qual/Quan browser (Xcalibur 2.0.5, Thermo Fisher, San Jose, Calif.). Since the phosphorylated peptides generated from the in vitro kinase reactions were chemically identical to the internal standards, they were assumed to have the same ionization efficiency. Therefore, the amount of each phosphorylated peptide was calculated by direct ratio to the internal standard level.
To test substrate suitability in a multiplexed assay, the phosphorylation activities were measured using […] of each substrate peptide, 6 μg lysate, and 5 mM ATP in a plate format. Reactions proceeded for 60 minutes followed by acidification and the addition of isotope-labeled reference peptides. After pooling 45 samples, phosphopeptide enrichment was followed by liquid-chromatography (LC) separation and on-line peptide detection by high-resolution mass spectrometry.
In order to examine target peptides with cell-cycle-dependent phosphorylation, kinase activities in asynchronously growing HeLa cells were profiled and the profiles were compared with those of cells synchronized in G1/S and G2/M phase using a double-thymidine block and nocodazole arrest, respectively (FIG. 3B).

EGFR = molecular target: T1, EGFR (Homo sapiens, UniProt P00533); test: In vitro kinase reaction of H5 peptide with purified EGFR; assay type: biochemical
T1 construct: epidermal growth factor (EGF) receptor (EGFR, 672-1210); purchased Cell Signaling Technology (Danvers, Mass.)
Excerpt: (§1) FIG. 7D is a line graph showing in vitro phosphorylation of peptide H5 (SEQ ID NO: 87) using each of purified Src and EGFR.
(§2) Purified human active kinases of Akt1 (full length), extracellular signal-regulated kinase 1 (ERK1, 1-379), mitogen-activated protein kinase kinase 1 (MEK1, 1-393), 90 kDa ribosomal S6 kinases 1 (RSK1, 1-735), cAMP-dependent protein kinase (PKA) catalytic subunit-α (PKA Cα, 1-351), protein kinase Cα (PKCα, full length), epidermal growth factor (EGF) receptor (EGFR, 672-1210), platelet-derived growth factor (PDGF) receptor α (PDGFRα, 550-1090), vascular endothelial growth factor (VEGF) receptor 1 (VEGFR1 784-1338), Src (full length), casein kinase 2 (CK2, full length), Aurora A (1-403), AMP-activated protein kinase α1β1γ1 (AMPK α1β1γ1, full length), glycogen synthase kinase-3α (GSK-3α, 1-483) and MAP/microtubule affinity-regulating kinase 1 (MARK 1, full length) were obtained from Cell Signaling Technology (Danvers, Mass.). Cdc2/cyclin B1 (full length) and insulin-like growth factor (IGF)-I receptor (IGFIR, 959-1367) were obtained from Upstate (Temecula, Calif.).
(§3) In order to identify the kinase that phosphorylates p55 (Tyr-199) lysates of serum-starved HEK293 cells were used for insulin, IGF and EGF stimulation. […]

Src = molecular target: T2, Src (Homo sapiens, UniProt P12931); test: In vitro kinase reaction of H5 peptide with purified Src; assay type: biochemical
T2 construct: Src (full length); purchased Cell Signaling Technology (Danvers, Mass.)
Excerpt: as §1, §2, §3

phosphorylation by EGFR (EGFR) | phosphorylation by Src (Src) | Compound | level of phospho-Src (Tyr-416) (Src family kinase) | level of phospho-p55 (Tyr-199) (Src family kinase) | increase in phosphorylation in G2/M (HeLa cell lysates; G2/M (nocodazole-arrested) HeLa lysate vs asynchronously growing cells) [fold] | G2/M: changed phosphorylation (HeLa cell lysates; G2/M phase compared to asynchronously growing HeLa cells)
– | – | CN(C)S(=O)(=O)c1ccc2c(c1)/C(=C/c1cc3c([nH]1)CCCC3)C(=O)N2 [Su6656, SU6656] | diminished | diminished | – | –
not | robust phosphorylation | EYDRLYEEYTPFR (The sequence was designed and synthesized) [H5] | – | – | 13 | ++ (A change of more than +4 and −4 fold is indicated by “++” and “−−”, respectively.)
